Earlier results in PubChem BioAssay AID1259409 (Chemical Carcinogenesis Research Information System (CCRIS), 2018).

System: rodent chemically induced tumor inhibition, incidence and multiplicity
Test: CCRIS tumor inhibitor studies
Conditions: Species: RAT

SMILES: O=C(O)O
- tumour outcome (control, treated, inhibition, significance) (Carcinogen: AZOXYMETHANE, 25843-45-2, Dose [Inhibitor]: 0, 2% IN DIET FOR 13 WK BEGINNING 36 WK POST LAST CARCINOGEN DOSE (STUDY DURATION: 49 WK), Route [Inhibitor]: ORAL, Strain/Sex: F344/MALE, Target Tissue: Type of Lesion: COLON: ADENOCARCINOMA, Dose [Carcinogen]: 12 MG/KG BW IN 0.9% SALINE TWICE, Promoter: CHOLIC ACID, 81-25-4): 26%, 31%, -19%, not significant
- tumour outcome (control, treated, inhibition, significance) (Carcinogen: AZOXYMETHANE, 25843-45-2, Dose [Inhibitor]: 0, 2% IN DIET FOR 13 WK BEGINNING 36 WK POST LAST CARCINOGEN DOSE (STUDY DURATION: 49 WK), Route [Inhibitor]: ORAL, Strain/Sex: F344/MALE, Target Tissue: Type of Lesion: COLON: ADENOMA, Dose [Carcinogen]: 12 MG/KG BW IN 0.9% SALINE TWICE, Promoter: CHOLIC ACID, 81-25-4): 81%, 89%, -10%, not significant
- tumour outcome (control, treated, inhibition, significance) (Carcinogen: AZOXYMETHANE, 25843-45-2, Dose [Inhibitor]: 0, 2% IN DIET FOR 13 WK BEGINNING 36 WK POST LAST CARCINOGEN DOSE (STUDY DURATION: 49 WK), Route [Inhibitor]: ORAL, Strain/Sex: F344/MALE, Target Tissue: Type of Lesion: SMALL INTESTINE: ADENOCARCINOMA, Dose [Carcinogen]: 12 MG/KG BW IN 0.9% SALINE TWICE, Promoter: CHOLIC ACID, 81-25-4): 23%, 14%, 39%, not significant
- tumour outcome (control, treated, inhibition, significance) (Carcinogen: AZOXYMETHANE, 25843-45-2, Dose [Inhibitor]: 0, 2% IN DIET FOR 13 WK BEGINNING 36 WK POST LAST CARCINOGEN DOSE (STUDY DURATION: 49 WK), Route [Inhibitor]: ORAL, Strain/Sex: F344/MALE, Target Tissue: Type of Lesion: SMALL INTESTINE: ADENOMA, Dose [Carcinogen]: 12 MG/KG BW IN 0.9% SALINE TWICE, Promoter: CHOLIC ACID, 81-25-4): 17%, 14%, 18%, not significant
- tumour outcome (control, treated, inhibition, significance) (Carcinogen: AZOXYMETHANE, 25843-45-2, Dose [Inhibitor]: 0, 2% IN DIET FOR 34 WK BEGINNING 1 WK POST LAST CARCINOGEN DOSE (STUDY DURATION: 49 WK), Route [Inhibitor]: ORAL, Strain/Sex: F344/MALE, Target Tissue: Type of Lesion: COLON: ADENOCARCINOMA, Dose [Carcinogen]: 12 MG/KG BW IN 0.9% SALINE TWICE, Promoter: CHOLIC ACID, 81-25-4): 26%, 18%, 31%, not significant
- tumour outcome (control, treated, inhibition, significance) (Carcinogen: AZOXYMETHANE, 25843-45-2, Dose [Inhibitor]: 0, 2% IN DIET FOR 34 WK BEGINNING 1 WK POST LAST CARCINOGEN DOSE (STUDY DURATION: 49 WK), Route [Inhibitor]: ORAL, Strain/Sex: F344/MALE, Target Tissue: Type of Lesion: COLON: ADENOMA, Dose [Carcinogen]: 12 MG/KG BW IN 0.9% SALINE TWICE, Promoter: CHOLIC ACID, 81-25-4): 81%, 59%, 27%, p<0.05
- tumour outcome (control, treated, inhibition, significance) (Carcinogen: AZOXYMETHANE, 25843-45-2, Dose [Inhibitor]: 0, 2% IN DIET FOR 34 WK BEGINNING 1 WK POST LAST CARCINOGEN DOSE (STUDY DURATION: 49 WK), Route [Inhibitor]: ORAL, Strain/Sex: F344/MALE, Target Tissue: Type of Lesion: SMALL INTESTINE: ADENOCARCINOMA, Dose [Carcinogen]: 12 MG/KG BW IN 0.9% SALINE TWICE, Promoter: CHOLIC ACID, 81-25-4): 23%, 16%, 30%, not significant
- tumour outcome (control, treated, inhibition, significance) (Carcinogen: AZOXYMETHANE, 25843-45-2, Dose [Inhibitor]: 0, 2% IN DIET FOR 34 WK BEGINNING 1 WK POST LAST CARCINOGEN DOSE (STUDY DURATION: 49 WK), Route [Inhibitor]: ORAL, Strain/Sex: F344/MALE, Target Tissue: Type of Lesion: SMALL INTESTINE: ADENOMA, Dose [Carcinogen]: 12 MG/KG BW IN 0.9% SALINE TWICE, Promoter: CHOLIC ACID, 81-25-4): 17%, 7%, 59%, not significant
- tumour outcome (control, treated, inhibition, significance) (Carcinogen: N-BUTYL-N-(4-HYDROXYBUTYL)NITROSAMINE, 3817-11-6, Dose [Inhibitor]: 5% DIET DAILY FOR 34 WK STARTING AFTER CARCINOGEN TREATMENT (STUDY DURATION: 38 WK), Route [Inhibitor]: ORAL, Strain/Sex: F344/MALE, Target Tissue: Type of Lesion: URINARY BLADDER: PAPILLOMA, Dose [Carcinogen]: 0.01% IN DRINKING WATER FOR 4 WK, Promoter: NONE USED): 33%, 37%, -12%, not significant
- tumour outcome (control, treated, inhibition, significance) (Carcinogen: N-METHYL-N'-NITRO-N-NITROSOGUANIDINE, 70-25-7, Dose [Inhibitor]: 0, 7.5% IN DIET FOR FIRST 20 WK THEN BASAL DIET FOR DURATION OF STUDY (STUDY DURATION: 40 WK), Route [Inhibitor]: ORAL, Strain/Sex: WISTAR/MALE, Target Tissue: Type of Lesion: GLANDULAR STOMACH: ADENOCARCINOMA, Dose [Carcinogen]: 100 MG/L IN DRINKING WATER FOR FIRST 20 WK, Promoter: NONE USED): 3/20 (15%), 3/19 (16%), -7%, not significant
- tumour outcome (control, treated, inhibition, significance) (Carcinogen: N-NITROSOMETHYLBENZYLAMINE, 937-40-6, Dose [Inhibitor]: 0, 20000 PPM IN DIET FOR DURATION OF STUDY BEGINNING 1 WK POST CARCINOGEN TREATMENT (STUDY DURATION: 25 WK), Route [Inhibitor]: ORAL, Strain/Sex: F344/MALE, Target Tissue: Type of Lesion: ESOPHAGUS: TUMOR, Dose [Carcinogen]: 1 MG/KG 3/WK FOR 5 WK, Promoter: NONE USED): 15/15 (100%), 14/15 (93%), 7%, not significant
- tumour outcome (control, treated, inhibition, significance) (Carcinogen: N-NITROSOMETHYLBENZYLAMINE, 937-40-6, Dose [Inhibitor]: 0, 20000 PPM IN DIET FOR DURATION OF STUDY BEGINNING 2 WK PRIOR TO CARCINOGEN TREATMENT (STUDY DURATION: 25 WK), Route [Inhibitor]: ORAL, Strain/Sex: F344/MALE, Target Tissue: Type of Lesion: ESOPHAGUS: TUMOR, Dose [Carcinogen]: 1 MG/KG 3/WK FOR 5 WK, Promoter: NONE USED): 15/15 (100%), 13/15 (87%), 13%, not significant
- tumour outcome (control, treated, inhibition, significance) (Dose [Inhibitor]: 0, 6.2 MG, 2 INJECTIONS ONCE INTO EACH POLE OF RIGHT KIDNEY ADMINISTERED WITH CARCINOGEN (STUDY DURATION: 109 WK), Route [Inhibitor]: INTRARENAL, Strain/Sex: F344/NCR/MALE, Target Tissue: Type of Lesion: KIDNEY: TUMOR, Dose [Carcinogen]: 5 MG, 2 INJECTIONS ONCE INTO EACH POLE OF RIGHT KIDNEY, Promoter: NONE USED): 25/40 (63%), 4/20 (20%), 68%, not calculated
- tumour outcome (control, treated, inhibition, significance) (Dose [Inhibitor]: 0, 7.5 UMOL (MG) INJECTED WITH CARCINOGEN INTO THIGH OF BOTH HIND LIMBS (STUDY DURATION: 79 WK), Route [Inhibitor]: INTRAMUSCULAR, Strain/Sex: F344/MALE, Target Tissue: Type of Lesion: INJECTION SITE: SARCOMA, Dose [Carcinogen]: 2.5 MG PER SITE INJECTED INTO THIGH OF BOTH HIND LIMBS ONCE, Promoter: NONE USED): 100%, 100%, 0%, not significant
- tumour outcome (control, treated, inhibition, significance) (Dose [Inhibitor]: 0, 15.5 UMOL (MG) INJECTED WITH CARCINOGEN INTO THIGH OF BOTH HIND LIMBS (STUDY DURATION: 79 WK), Route [Inhibitor]: INTRAMUSCULAR, Strain/Sex: F344/MALE, Target Tissue: Type of Lesion: INJECTION SITE: SARCOMA, Dose [Carcinogen]: 2.5 MG PER SITE INJECTED INTO THIGH OF BOTH HIND LIMBS ONCE, Promoter: NONE USED): 100%, 95%, 5%, not significant
- tumour outcome (control, treated, inhibition, significance) (Dose [Inhibitor]: 0, 30 UMOL (MG) INJECTED WITH CARCINOGEN INTO THIGH OF BOTH HIND LIMBS (STUDY DURATION: 79 WK), Route [Inhibitor]: INTRAMUSCULAR, Strain/Sex: F344/MALE, Target Tissue: Type of Lesion: INJECTION SITE: SARCOMA, Dose [Carcinogen]: 2.5 MG PER SITE INJECTED INTO THIGH OF BOTH HIND LIMBS ONCE, Promoter: NONE USED): 100%, 55%, 45%, not calculated
- tumour outcome (control, treated, inhibition, significance) (Dose [Inhibitor]: 0, 60 UMOL (MG) INJECTED WITH CARCINOGEN INTO THIGH OF BOTH HIND LIMBS (STUDY DURATION: 79 WK), Route [Inhibitor]: INTRAMUSCULAR, Strain/Sex: F344/MALE, Target Tissue: Type of Lesion: INJECTION SITE: SARCOMA, Dose [Carcinogen]: 2.5 MG PER SITE INJECTED INTO THIGH OF BOTH HIND LIMBS ONCE, Promoter: NONE USED): 100%, 60%, 40%, not significant
- tumour outcome (control, treated, inhibition, significance) (Dose [Inhibitor]: 0, 120 UMOL (MG) INJECTED INTO NAPE OF NECK (STUDY DURATION: 79 WK), Route [Inhibitor]: SUBCUTANEOUS, Strain/Sex: F344/MALE, Target Tissue: Type of Lesion: INJECTION SITE: SARCOMA, Dose [Carcinogen]: 2.5 MG PER SITE INJECTED INTO THIGH OF BOTH HIND LIMBS, Promoter: NONE USED): 100%, 100%, 0%, not significant
- tumour outcome (control, treated, inhibition, significance) (Dose [Inhibitor]: 0, 120 UMOL (MG) INJECTED WITH CARCINOGEN INTO THIGH OF BOTH HIND LIMBS (STUDY DURATION: 79 WK), Route [Inhibitor]: INTRAMUSCULAR, Strain/Sex: F344/MALE, Target Tissue: Type of Lesion: INJECTION SITE: SARCOMA, Dose [Carcinogen]: 2.5 MG PER SITE INJECTED INTO THIGH OF BOTH HIND LIMBS, Promoter: NONE USED): 100%, 55%, 45%, not calculated
